# Experiments:
# [1] = weight-gain oxidative stability test of treated fish oil (induction period), Example 2; format: physicochemical; details: for induction period (IP; time before rapid oxygen uptake): stored at about 35° C.
# Procedure: The oxidative stability of oils can be compared by accelerated tests, such as the weight-gain method, where oil samples are stored at elevated temperatures and oxygen atmosphere. The weight increase due to oxygen absorption is measured and plotted against time. At a certain time, depending on the oils resistance to oxidation, weight increase will be rapid, and the time before this happens is noted as the oils induction time (IP).
# 0.083 moles of amine/amide was added to 95 g of a fish oil, which was progressively heated to 90° C. (A series) or 140° C. (B series) during agitation to dissolve the substances in the oil. After 30 minutes at this temperature, the oil was cooled and filtered.
# Three 3-g samples of filtered untreated oil, and three 3-g samples of filtered oil from each of the treatments described in table 1, were placed in identical petri dishes (60 mm, with loose fitting lids) and accurately weighed. The petri dishes were placed in an oven at about 35° C., and the weight increase related to oxygen uptake (oxidation) was recorded by weighing 3 times/week.
# The results given in FIG. 4 and in FIG. 5 indicates large differences in stability as measured by induction periods (IP; i.e. the time before rapid oxygen uptake), ranging from 17 days (oils heated to 90° C. or 140° C. without any substance added) and 19 days (untreated oil), to 95 days (oils treated with hexylamine at 90° C., or allylurea at 140° C., or N,N′-dimethylurea at 140° C.).
# [2] = solubility in oil; format: physicochemical; details: ambient temperature
# [3] = fish oil treated with 0.083 moles per 95 g oil at 140° C. for 30 minutes
structure (smiles),measurement,setting,value
"CCCCCCN [A3, Hexylamine]",stability in prolonged storage,"[1]; fish oil treated at 90° C., experiment continued for another 70 days, about 35° C.",still were stable
same,induction period (IP; time before rapid oxygen uptake),[1]; fish oil treated with 0.083 moles per 95 g oil at 90° C. for 30 minutes,95 days
"CNC(=O)NC [B4, N,N′-dimethylurea]","day of rapid weight increase, prolonged storage","[1]; fish oil treated at 140° C., experiment continued for another 70 days, about 35° C.",135 days
same,induction period (IP; time before rapid oxygen uptake),[1]; [3],95 days
"C=CCNC(N)=O [allylurea, Allylurea]",induction period (IP; time before rapid oxygen uptake),[1]; [3],95 days
NC(N)=O [urea],solubility in oil,[2],approx. 1 g per kg oil

# — patent US20030144355A1, “Stabilisation of pigments and polyunsaturated oils and oil concentrates” (priority 1999, published 2003)
